Experimental data taken from patent US9976170B2, “Method for evaluating bacterial cell wall integrity” (UNIVERSIDAD AUTONOMA DE MADRID, priority 2011, dated 2018).
In brackets after ≈: the same amount, converted by molar mass.

Key:
Type in all cases: cell-based
[1] = test system: Escherichia coli, ampicillin- and ceftazidime-resistant strain; test: technique for evaluating cell wall integrity (lysis solution, nucleoid release, fluorescence microscopy); conditions: 60 minutes
Protocol: (§1) Different bacterial strains grown on a dish with Mueller-Hinton medium for 24 hours were subsequently exposed to a β-lactam antibiotic for 60 minutes in Mueller-Hinton liquid medium at 37° C., under stirring, and were finally processed by means of the technique for evaluating cell wall integrity according to the present invention.
(§2) The doses of antibiotic applied were 0, the MIC determined in the Microbiology Laboratory by means of the microdilution and/or E-test technique, and those of the cutoff points of sensitivity and resistance indicated by the Clinical and Laboratory Standards Institute (CLSI) for each strain. A dose 10 times higher than the MIC was also used.

[2] = test system: Acinetobacter baumannii, imipenem- and ceftazidime-resistant strain; test: as above; conditions: 60 minutes
Protocol: as §1, §2

[3] = test system: Acinetobacter baumannii, imipenem-sensitive strain with intermediate sensitivity to ceftazidime; test: as above; conditions: 60 minutes
Protocol: as §1, §2

[4] = test system: Escherichia coli, ceftazidime-sensitive strain with intermediate sensitivity to ampicillin; test: as above; conditions: 60 minutes
Protocol: as §1, §2

[5] = test system: Escherichia coli, ampicillin- and ceftazidime-resistant strain; test: MIC by microdilution and/or E-test
Description: (§3) The strains and the antibiotics used were: • Gram+ • Enterococcus faecalis.
as §2

[6] = test system: Acinetobacter baumannii, imipenem- and ceftazidime-resistant strain; test: MIC by microdilution and/or E-test
Description: as §3, §2

[7] = test system: Acinetobacter baumannii, imipenem-sensitive strain with intermediate sensitivity to ceftazidime; test: MIC by microdilution and/or E-test
Description: as §3, §2

[8] = test system: Escherichia coli, ceftazidime-sensitive strain with intermediate sensitivity to ampicillin; test: MIC by microdilution and/or E-test
Description: as §3, §2

CC(C)(O/N=C(\C(=O)N[C@@H]1C(=O)N2C(C(=O)[O-])=C(C[n+]3ccccc3)CS[C@H]12)c1csc(N)n1)C(=O)O [ceftazidime]
filamentous cells ([1]; 8 μg/mL): 13% | well lysed cells ([1]; 8 μg/mL): 1% | background of extracellular DNA fragments ([1]; 20 μg/mL): without background | filamentous cells ([1]; 20 μg/mL): 99% | non-lysed cells ([1]; 20 μg/mL): 94% | well lysed cells ([1]; 20 μg/mL): 5% | background of extracellular DNA fragments ([1]; 32 μg/mL (MIC)): subtle background | empty capsules ([1]; 32 μg/mL (MIC)): 1% | filamentous cells ([1]; 32 μg/mL (MIC)): 98% | lysed cells with nucleoid with fragmented DNA ([1]; 32 μg/mL (MIC)): 3% | non-lysed cells ([1]; 32 μg/mL (MIC)): 92% | well lysed cells ([1]; 32 μg/mL (MIC)): 4% | background of extracellular DNA fragments ([1]; 320 μg/mL): subtle background | cells lysed with nucleoid with fragmented DNA ([1]; 320 μg/mL): 0.5% | filamentous cells ([1]; 320 μg/mL): 99% | heavily lysed cells ([1]; 320 μg/mL): 3.5% | moderately lysed cells ([1]; 320 μg/mL): 95% | non-lysed cells ([1]; 320 μg/mL): 1% | background of extracellular DNA fragments ([2]; 2.560 μg/mL): same background persists | cells lysed with nucleoids with fragmented DNA ([2]; 2.560 μg/mL): 25% | cells not lysed ([2]; 2.560 μg/mL): 5% | cells with a large halo ([2]; 2.560 μg/mL): 63.5% | cells with a small halo ([2]; 2.560 μg/mL): 6.5% | very elongated and filamentous cells ([2]; 8 μg/mL): 22% | background of extracellular DNA fragments ([2]; 256 μg/mL): subtle background | cells not lysed ([2]; 256 μg/mL): 4.7% | cells with a small halo ([2]; 256 μg/mL): 63% | heavily lysed cells ([2]; 256 μg/mL): 32.3% | background of extracellular DNA fragments ([2]; 20 and 32 μg/mL): without background | cells with a large halo ([2]; 20 and 32 μg/mL): 1.5% | cells with a small halo ([2]; 20 and 32 μg/mL): 84.5% | filamentous cells ([2]; subsequent doses (20, 32, 256, 2.560 μg/mL)): 90% | background of extracellular DNA fragments ([3]; 8 μg/mL): without background | filamentous cells ([3]; 8 μg/mL): 82% | lysed cells with a small halo ([3]; 8 μg/mL): 40% | lysed cells with nucleoid with fragmented DNA ([3]; 8 μg/mL): 1% | filamentous cells ([3]; 12 μg/mL (MIC) and 20 μg/mL): 95% | background of extracellular DNA fragments ([3]; 12 μg/mL (MIC)): subtle background | lysed cells with a large halo ([3]; 12 μg/mL (MIC)): 1.5% | lysed cells with a small halo ([3]; 12 μg/mL (MIC)): 94.5% | non-lysed cells ([3]; 12 μg/mL (MIC)): 4% | lysed cells with a large halo ([3]; 20 μg/mL): 3% | lysed cells with a small halo ([3]; 20 μg/mL): 91.5% | non-lysed cells ([3]; 20 μg/mL): 5.5% | background of extracellular DNA fragments ([3]; 32 μg/mL): more background | elongated cells ([3]; 32 μg/mL): 90% | lysed cells with a large halo ([3]; 32 μg/mL): 6% | lysed cells with a small halo ([3]; 32 μg/mL): 88% | non-lysed cells ([3]; 32 μg/mL): 6% | background of extracellular DNA fragments ([3]; 120 μg/mL): extensive background | filamentous cells ([3]; 120 μg/mL): 91% | lysed cells with a large halo ([3]; 120 μg/mL): 23% | lysed cells with a small halo ([3]; 120 μg/mL): 67% | lysed cells with nucleoid with fragmented DNA ([3]; 120 μg/mL): 36% | non-lysed cells ([3]; 120 μg/mL): 7% | background of extracellular DNA fragments ([4]; 1 μg/mL (MIC)): some background | filamentous cells ([4]; 1 μg/mL (MIC)): 99% | heavily lysed cells ([4]; 1 μg/mL (MIC)): 97% | background of extracellular DNA fragments ([4]; 8 μg/mL): more background | background of extracellular DNA fragments ([4]; 10 μg/mL): extensive background | empty capsules ([4]; 10 μg/mL): 10.5% | lysed cells with nucleoid with fragmented DNA ([4]; 10 μg/mL): 11% | well lysed cells ([4]; 10 μg/mL): 76.5% | empty capsules ([4]; 20 and 32 μg/mL): 25.3% | lysed cells with nucleoid with fragmented DNA ([4]; 20 and 32 μg/mL): 20% | non-lysed cells ([4]; 20 and 32 μg/mL): 2% | well lysed cells ([4]; 20 and 32 μg/mL): 52.7% | MIC [5]: 32 µg/mL (≈ 58.5 µM) | MIC [6]: > 32 µg/mL | MIC [7]: 12 µg/mL (≈ 22 µM) | MIC [8]: 1 µg/mL (≈ 1.83 µM)
